Experimental data taken from patent US4229204A, “Trifluoromethylphenyl isoxazolyl benzoates” (Monsanto Company, priority 1978, dated 1980).

Columns and labels:
Type in all cases: in vivo
Crabgrass = assay: Pre-emergent herbicidal test; details: 4 WAT
Method: (§1) The pre-emergent test was conducted as follows:
(§2) A good grade of top soil was placed in aluminum pans and compacted to a depth of three-eighths to one-half inch from the top of the pan. On the top of the soil was placed a predetermined number of seeds or vegetative propagules of various plant species which were pressed into the soil surface. The soil required to level fill the pans after seeding or adding vegetative propagules was weighed into a pan. A known amount of the active ingredient applied in a solvent or as a wettable powder and the soil were thoroughly mixed, and used as a cover layer for prepared pans.
(§3) The herbicidal rating was obtained by means of a fixed scale based on the percent injury of each plant species. The ratings are defined as follows: […]

Hemp Sesbania = assay: Pre-emergent herbicidal test; details: 4 WAT
Method: as §1, §2, §3

Panicum Spp. = assay: Pre-emergent herbicidal test; details: 4 WAT
Method: as §1, §2, §3

Rice = assay: Pre-emergent herbicidal test; details: 4 WAT
Method: as §1, §2, §3

Sorghum = assay: Pre-emergent herbicidal test; details: 4 WAT
Method: as §1, §2, §3

Soybean = assay: Pre-emergent herbicidal test; details: 4 WAT
Method: as §1, §2, §3

Sugarbeet = assay: Pre-emergent herbicidal test; details: 4 WAT
Method: as §1, §2, §3

Wheat = assay: Pre-emergent herbicidal test; details: 4 WAT
Method: as §1, §2, §3

Wild Buckwheat = assay: Pre-emergent herbicidal test; details: 4 WAT
Method: as §1, §2, §3

Barnyardgrass [1] = assay: Pre-emergent herbicidal test; details: 4 WAT
Method: as §1, §2, §3
(§4) The compounds were also tested by utilizing the above procedure on the following plant species: […]

Canada Thistle [2] = assay: Pre-emergent herbicidal test; details: 4 WAT, 11.2 kg/h
Method: as §1, §2, §3, §4

Cocklebur [3] = assay: Pre-emergent herbicidal test; details: 4 WAT
Method: as §1, §2, §3, §4

Downy Brome [4] = assay: Pre-emergent herbicidal test; details: 4 WAT
Method: as §1, §2, §3, §4

Johnsongrass [5] = assay: Pre-emergent herbicidal test; details: 4 WAT, 11.2 kg/h
Method: as §1, §2, §3, §4

Lambsquarters [6] = assay: Pre-emergent herbicidal test; details: 4 WAT
Method: as §1, §2, §3, §4

Morningglory [7] = assay: Pre-emergent herbicidal test; details: 4 WAT
Method: as §1, §2, §3, §4

Quackgrass [8] = assay: Pre-emergent herbicidal test; details: 4 WAT, 11.2 kg/h
Method: as §1, §2, §3, §4

Smartweed [9] = assay: Pre-emergent herbicidal test; details: 4 WAT
Method: as §1, §2, §3, §4

Velvetleaf [10] = assay: Pre-emergent herbicidal test; details: 4 WAT
Method: as §1, §2, §3, §4

Yellow Nutsedge [11] = assay: Pre-emergent herbicidal test; details: 4 WAT, 11.2 kg/h
Method: as §1, §2, §3, §4

Barnyardgrass [12] = assay: Post-emergent herbicidal test; details: 4 WAT, 11.2 kg/h
Method: (§5) The post-emergent tests were conducted as follows:
(§6) The active ingredients are applied in spray form to two or three week old specimens of various plant species. The spray, a solution or wettable powder suspension containing the appropriate rate of active ingredient to give the desired test rate and a surfactant, is applied to the plants.
as §4

Canada Thistle [13] = assay: Post-emergent herbicidal test; details: 4 WAT, 11.2 kg/h
Method: as §5, §6, §4

Cocklebur [14] = assay: Post-emergent herbicidal test; details: 4 WAT, 11.2 kg/h
Method: as §5, §6, §4

Downy Brome [15] = assay: Post-emergent herbicidal test; details: 4 WAT, 11.2 kg/h
Method: as §5, §6, §4

Johnsongrass [16] = assay: Post-emergent herbicidal test; details: 4 WAT, 11.2 kg/h
Method: as §5, §6, §4

Lambsquarters [17] = assay: Post-emergent herbicidal test; details: 4 WAT, 11.2 kg/h
Method: as §5, §6, §4

Morningglory [18] = assay: Post-emergent herbicidal test; details: 4 WAT, 11.2 kg/h
Method: as §5, §6, §4

Quackgrass [19] = assay: Post-emergent herbicidal test; details: 4 WAT, 11.2 kg/h
Method: as §5, §6, §4

Smartweed [20] = assay: Post-emergent herbicidal test; details: 4 WAT, 11.2 kg/h
Method: as §5, §6, §4

Velvetleaf [21] = assay: Post-emergent herbicidal test; details: 4 WAT, 11.2 kg/h
Method: as §5, §6, §4

Yellow Nutsedge [22] = assay: Post-emergent herbicidal test; details: 4 WAT, 11.2 kg/h
Method: as §5, §6, §4
Note: ranges in brackets are in %.

O=C(O)c1ccccc1-c1cc(-c2cccc(C(F)(F)F)c2)no1 [Example 11, 2-[3-(3-Trifluoromethylphenyl)-5-Isoxazolyl]Benzoic Acid]
herbicidal rating (Crabgrass; 1.12 kg/h): 2 (50-74) | herbicidal rating (Crabgrass; 5.60 kg/h): 3 (75-100) | herbicidal rating (Hemp Sesbania; 1.12 kg/h): 3 (75-100) | herbicidal rating (Hemp Sesbania; 5.60 kg/h): 2 (50-74) | herbicidal rating (Panicum Spp.; 1.12 kg/h): 2 (50-74) | herbicidal rating (Panicum Spp.; 5.60 kg/h): 3 (75-100) | herbicidal rating (Rice; 1.12 kg/h): 3 (75-100) | herbicidal rating (Rice; 5.60 kg/h): 3 (75-100) | herbicidal rating (Sorghum; 1.12 kg/h): 1 (25-49) | herbicidal rating (Sorghum; 5.60 kg/h): 3 (75-100) | herbicidal rating (Soybean; 1.12 kg/h): 3 (75-100) | herbicidal rating (Soybean; 5.60 kg/h): 3 (75-100) | herbicidal rating (Sugarbeet; 1.12 kg/h): 2 (50-74) | herbicidal rating (Sugarbeet; 5.60 kg/h): 2 (50-74) | herbicidal rating (Wheat; 1.12 kg/h): 0 (0-24) | herbicidal rating (Wheat; 5.60 kg/h): 1 (25-49) | herbicidal rating (Wild Buckwheat; 1.12 kg/h): 2 (50-74) | herbicidal rating (Wild Buckwheat; 5.60 kg/h): 3 (75-100) | herbicidal rating (Barnyardgrass [1]; 1.12 kg/h): 3 (75-100) | herbicidal rating (Barnyardgrass [1]; 5.60 kg/h): 2 (50-74) | herbicidal rating (Barnyardgrass [1]; 11.2 kg/h): 3 (75-100) | herbicidal rating (Canada Thistle [2]): 3 (75-100) | herbicidal rating (Cocklebur [3]; 1.12 kg/h): 0 (0-24) | herbicidal rating (Cocklebur [3]; 5.60 kg/h): 1 (25-49) | herbicidal rating (Cocklebur [3]; 11.2 kg/h): 3 (75-100) | herbicidal rating (Downy Brome [4]; 1.12 kg/h): 2 (50-74) | herbicidal rating (Downy Brome [4]; 5.60 kg/h): 2 (50-74) | herbicidal rating (Downy Brome [4]; 11.2 kg/h): 3 (75-100) | herbicidal rating (Johnsongrass [5]): 0 (0-24) | herbicidal rating (Lambsquarters [6]; 1.12 kg/h): 2 (50-74) | herbicidal rating (Lambsquarters [6]; 5.60 kg/h): 3 (75-100) | herbicidal rating (Lambsquarters [6]; 11.2 kg/h): 2 (50-74) | herbicidal rating (Morningglory [7]; 1.12 kg/h): 1 (25-49) | herbicidal rating (Morningglory [7]; 5.60 kg/h): 2 (50-74) | herbicidal rating (Morningglory [7]; 11.2 kg/h): 2 (50-74) | herbicidal rating (Quackgrass [8]): 3 (75-100) | herbicidal rating (Smartweed [9]; 1.12 kg/h): 2 (50-74) | herbicidal rating (Smartweed [9]; 5.60 kg/h): 3 (75-100) | herbicidal rating (Smartweed [9]; 11.2 kg/h): 3 (75-100) | herbicidal rating (Velvetleaf [10]; 1.12 kg/h): 1 (25-49) | herbicidal rating (Velvetleaf [10]; 5.60 kg/h): 2 (50-74) | herbicidal rating (Velvetleaf [10]; 11.2 kg/h): 3 (75-100) | herbicidal rating (Yellow Nutsedge [11]): 1 (25-49) | herbicidal rating (Barnyardgrass [12]): 2 (50-74) | herbicidal rating (Canada Thistle [13]): 1 (25-49) | herbicidal rating (Cocklebur [14]): 1 (25-49) | herbicidal rating (Downy Brome [15]): 2 (50-74) | herbicidal rating (Johnsongrass [16]): 1 (25-49) | herbicidal rating (Lambsquarters [17]): 2 (50-74) | herbicidal rating (Morningglory [18]): 1 (25-49) | herbicidal rating (Quackgrass [19]): 0 (0-24) | herbicidal rating (Smartweed [20]): 2 (50-74) | herbicidal rating (Velvetleaf [21]): 1 (25-49) | herbicidal rating (Yellow Nutsedge [22]): 1 (25-49)
